The test system of this test is LpxC enzyme. The test is described as follows: LpxC enzyme assay (RapidFire high-throughput mass spectrometry). It counts as biochemical. The method, boiled down: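 0.2 nM enzyme with 1.0 μM UDP-3-O-(R-3-hydroxymyristoyl)-N-acetylglucosamine in 25 mM HEPES pH 7.3, 150 mM NaCl, 2.0 mM DTT, 0.01% BSA, 2% DMSO; 60 min at room temperature, quenched with HCl. Substrate and product quantified by RapidFire mass spectrometry; percent conversion gives percent inhibition versus DMSO control.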

The mark [1] stands for this setting: concentration 0.10 (unit not given).
Setting [2] is: concentration 0.20 (unit not given).
Setting [3] is: concentration 0.39 (unit not given).
Setting [4] is: concentration 0.78 (unit not given).
The mark [5] stands for this setting: concentration 1.56 (unit not given).
Setting [6] is: concentration 3.13 (unit not given).
The mark [7] stands for this setting: concentration 6.25 (unit not given).
Where [8] appears, read: concentration 12.50 (unit not given).
Where [9] appears, read: concentration 25 (unit not given).
The mark [10] stands for this setting: concentration 50 (unit not given).

Consider `O=C(Nc1ccc(-c2ccc(C(F)(F)F)cc2)cc1)[C@H](O)[C@@H](O)C(=O)N1CCCC1` [Compound 65], for which the “LpxC enzyme assay rating (% inhibition at indicated concentrations)” value is, setting by setting: under setting [1], “B (10-30% inhibition)”; under setting [2], “B (10-30% inhibition)”; under setting [3], “B (10-30% inhibition)”; under setting [4], “C (less than 10% inhibition)”; under setting [5], “B (10-30% inhibition)”; under setting [6], “B (10-30% inhibition)”. The “LpxC enzyme assay rating (% inhibition at indicated concentrations)” value is recorded as “B (10-30% inhibition)” under setting [7], “B (10-30% inhibition)” under setting [8], “B (10-30% inhibition)” under setting [9] and “B (10-30% inhibition)” under setting [10].
For `CNC(=O)[C@H](O)[C@@H](O)C(=O)Nc1ccc(OCCCN(C)C)cc1` [Compound 40], the “LpxC enzyme assay rating (% inhibition at indicated concentrations)” value by setting is: under setting [1], “C (less than 10% inhibition)”; under setting [2], “C (less than 10% inhibition)”; under setting [3], “C (less than 10% inhibition)”; under setting [4], “B (10-30% inhibition)”; under setting [5], “C (less than 10% inhibition)”; under setting [6], “C (less than 10% inhibition)”. Also, the “LpxC enzyme assay rating (% inhibition at indicated concentrations)” value is “C (less than 10% inhibition)” under setting [7], “B (10-30% inhibition)” under setting [8], “B (10-30% inhibition)” under setting [9] and “C (less than 10% inhibition)” under setting [10].
Regarding `O=C(Nc1ccc(-n2cccn2)cc1)[C@H](O)[C@@H](O)C(=O)N1CCCC1` [Compound 75], the “LpxC enzyme assay rating (% inhibition at indicated concentrations)” value is “C (less than 10% inhibition)” under setting [1]; “C (less than 10% inhibition)” under setting [2]; “C (less than 10% inhibition)” under setting [3]; “B (10-30% inhibition)” under setting [4]; “C (less than 10% inhibition)” under setting [5]; “B (10-30% inhibition)” under setting [6]. The “LpxC enzyme assay rating (% inhibition at indicated concentrations)” value runs as follows: under setting [7], “B (10-30% inhibition)”; under setting [8], “C (less than 10% inhibition)”; under setting [9], “C (less than 10% inhibition)”; under setting [10], “B (10-30% inhibition)”.
As for `CN(C)C(=O)[C@H](O)[C@@H](O)C(=O)N(C)c1ccc(-c2ccc3ccccc3c2)cc1` [Compound 104], the “LpxC enzyme assay rating (% inhibition at indicated concentrations)” value under setting [1] is reported as “C (less than 10% inhibition)”; the “LpxC enzyme assay rating (% inhibition at indicated concentrations)” value under setting [2] is on record as “C (less than 10% inhibition)”; the “LpxC enzyme assay rating (% inhibition at indicated concentrations)” value under setting [3] was “C (less than 10% inhibition)”; the “LpxC enzyme assay rating (% inhibition at indicated concentrations)” value under setting [4] is listed as “C (less than 10% inhibition)”; the “LpxC enzyme assay rating (% inhibition at indicated concentrations)” value under setting [5] was “C (less than 10% inhibition)”; the “LpxC enzyme assay rating (% inhibition at indicated concentrations)” value under setting [6] was “C (less than 10% inhibition)”. For the same compound, the “LpxC enzyme assay rating (% inhibition at indicated concentrations)” value was “C (less than 10% inhibition)” under setting [7], “C (less than 10% inhibition)” under setting [8] and “B (10-30% inhibition)” under setting [9].
With `O=C(Nc1ccc(Oc2ccccc2)cc1)[C@H](O)[C@@H](O)C(=O)N1CCCC1` [Compound 71], the “LpxC enzyme assay rating (% inhibition at indicated concentrations)” value runs as follows: under setting [1], “B (10-30% inhibition)”; under setting [2], “C (less than 10% inhibition)”; under setting [3], “B (10-30% inhibition)”; under setting [4], “B (10-30% inhibition)”; under setting [5], “B (10-30% inhibition)”; under setting [6], “B (10-30% inhibition)”. Besides, the “LpxC enzyme assay rating (% inhibition at indicated concentrations)” value is on record as “C (less than 10% inhibition)” under setting [7], “C (less than 10% inhibition)” under setting [8], “C (less than 10% inhibition)” under setting [9] and “C (less than 10% inhibition)” under setting [10].
With `CCC(C)c1ccc(NC(=O)[C@H](O)[C@@H](O)C(=O)N2CCCC2)cc1` (stereo partly drawn) [Compound 68], the “LpxC enzyme assay rating (% inhibition at indicated concentrations)” value runs as follows: under setting [1], “C (less than 10% inhibition)”; under setting [2], “C (less than 10% inhibition)”; under setting [3], “C (less than 10% inhibition)”; under setting [4], “C (less than 10% inhibition)”; under setting [5], “C (less than 10% inhibition)”; under setting [6], “B (10-30% inhibition)”. Also, the “LpxC enzyme assay rating (% inhibition at indicated concentrations)” value is, setting by setting: under setting [7], “B (10-30% inhibition)”; under setting [8], “C (less than 10% inhibition)”; under setting [9], “B (10-30% inhibition)”; under setting [10], “B (10-30% inhibition)”.
In the case of `CCCCc1ccc(NC(=O)[C@H](O)[C@@H](O)C(=O)N2CCCC2)cc1` [Compound 66], the “LpxC enzyme assay rating (% inhibition at indicated concentrations)” value is given as “C (less than 10% inhibition)” under setting [1]; “C (less than 10% inhibition)” under setting [2]; “B (10-30% inhibition)” under setting [3]; “C (less than 10% inhibition)” under setting [4]; “B (10-30% inhibition)” under setting [5]; “B (10-30% inhibition)” under setting [6]. In addition, the “LpxC enzyme assay rating (% inhibition at indicated concentrations)” value by setting is: under setting [7], “B (10-30% inhibition)”; under setting [8], “B (10-30% inhibition)”; under setting [9], “A (greater than 30% inhibition)”; under setting [10], “B (10-30% inhibition)”.

For the origin of these results see patent publication US7553864B2, “Compounds for the treatment of inflammatory disorders and microbial diseases” (Schering Corporation, priority 2005, dated 2009).
